Experimental data reported in patent publication US20020037858A1, “Pharmaceutical compositions comprising moexipril magnesium” (priority 2000, published 2002).

Assay: Stability of moexipril magnesium salt in solid compositions
Format: physicochemical
Settings: solid compositions without an alkaline stabilizing compound in the final composition

Which “stability of the salt” value does the source give for `CCOC(=O)[C@H](CCc1ccccc1)N[C@@H](C)C(=O)N1Cc2cc(OC)c(OC)cc2C[C@H]1C(=O)O.[Mg]` [moexipril magnesium] here?
Its value is “sufficiently stable to enable stable solid compositions”.
